No end group written: not given here.
Assays:
mice = assay: Observation of adverse effects on repetitive daily skin application; type: in vivo
[1] = tested on: Complete Freund's Adjuvant (CFA) animal model of chronic inflammatory pain; assay: Thermal hyperalgesia test (incremental hot plate) in CFA model of chronic inflammatory pain; type: in vivo, mice; settings: for heat hyperalgesia compared to the inactive L3D-L37pA peptide: Example 3, FIGS. 5(a)-5(e), topical application once a day; for withdrawal latencies to thermal stimuli: CFA in left paw
Protocol: The L37pA peptide having the sequence […] (SEQ ID NO: 2) was synthesized by a solid-phase procedure. […] The L37pA and L3D-37pA peptides were formulated into both an intramuscular injectable preparation and a hydrogel or lotion preparation. The intramuscular (IM) injectable formulation contains 0.5 μg/μl of the peptide, with an injection dose of 2 μl/g mouse weight, which equals approximately 20 μg peptide per injection. The hydrogel and lotion formulations each contains 0.2 mg/ml of the peptide. 20-50 μl of the formulations are applied, which is approximately 4-10 μg peptide per single skin treatment. Topical hydrogel and lotion formulations containing a vehicle without any peptide were prepared as additional negative controls.
In this experiment, the peptide was administered via intramuscular injections. The first group of mice (“CFA group”) were injected with 30 μl of Complete Freund's Adjuvant (CFA) in the plantar surface of the left hind paw. The second group of mice (“Vehicle Group”) were injected with Vehicle (saline) instead of CFA. For each of the CFA and Vehicle Groups, the mice were then injected once a day with the following formulations, with “n” representing the number of mice receiving each formulation: […]
Thermal hyperalgesia was performed before the CFA injection. The measurement of baseline thermosensitivity was actually carried out before time 0, but it was assumed that the baseline remained the same at time 0. Injection of CFA in the paw and the intramuscular injection of peptide were performed at the same time. Injections of CFA and peptides were performed in left paws. The right paws of the mice remained intact and were used for comparison.
After administering the L37pA or L3D-37pA peptide, the thermal hyperalgesia test was performed for 30 minutes at 3, 24, and 72 hours post CFA-injection. In the thermal hyperalgesia test, an incremental hot plate with an automatic cut-off temperature of 50° C. was used to induce the nocifensive behaviors of licking a hind paw to identify the thresholds for noxious heat and assess the thermal hyperalgesia. The temperature of the plate at the time when the licking occurred was recorded. The peptides were injected every single day and at 30 minutes prior to the behavior test. In addition, to investigate the effects of the peptides on inflammatory swelling caused by the CFA injection, the thicknesses of the left and right hind paws of the mice were measured post-peptide administration for signs of inflammation. In the figures, *p≤0.05, **p≤0.01, and ***p≤0.001 show comparisons to the Vehicle/L3D-37pA controls at each timepoint.
In this experiment, the peptide was administered topically once a day. The first group of mice (“CFA group”) were injected with 30 μl of Complete Freund's Adjuvant (CFA) in the plantar surface of the left hind paw. The second group of mice (“Vehicle Group”) were injected with Vehicle (saline) instead of CFA. For each of the CFA and Vehicle groups, the topical formulation was then administered to the mice according to the following experiment design:
The topical application of the peptides was carried out 21 hours after the saline or CFA injection and applied […] in the following days. In case of topical application of peptide, the peptides were applied 3 hours before the second measurement of thermosensitivity and applied […] afterwards. Thermal hyperalgesia was performed before administration and after administering the L37pA, L3D-37 pA, or vehicle, at 30 minutes after administration. The thermal hyperalgesia test was performed as described above. In addition, the thicknesses of the left and right hind paws of the mice were measured post-peptide administration for signs of inflammation. In the figures, *p 0.05, **p 0.01, and ***p 0.001 show comparisons to the saline/L3D-37pA controls at each timepoint.
The applicant performed heat hyperalgesia tests similar to the manner discussed above in Example 1. […]

CD36 = target: T1, CD36 (Homo sapiens, UniProt P16671); assay: IL-8 in conditioned medium (ELISA) of CD36-expressing HEK293 cells after 20 hours incubation with CD36 ligands; type: cell-based; settings: for IL-8 produced by cells treated with the ligand: CD36-expressing HEK293 cells, increasing ligand concentrations, 20 hours (FIG. 8)
T1 construct: expressed in transfected cells; host or cells: HEK293
Protocol: (§1) Following 20 hours incubation of wild-type (WT) and CD36-expressing (CD36+) HEK293 cells with increasing concentrations of CD36 ligands, the IL-8 levels were determined in conditioned medium by ELISA.
Following 20 hours incubation of CD36-expressing cells with the indicated amounts of the ligands, the IL-8 levels were determined in conditioned medium.
(§2) To study this, the applicant conducted cell culture experiments using wildtype (WT) and CD36+ expressing (CD36+) HEK293 cells, treated with increasing amounts of CD36 ligands. Specifically, the ligands tested were the PAMP lipopolysaccharide (LPS) and the DAMPs high mobility group box 1 protein (HMGB1), Histone H3B, and heat shock protein 60 (HSP60). […] Similarly to HSP60, it is presumed that HSP70 and HSP90 also cause inflammation mediated by the CD36 receptor, and which may be alleviated by the disclosed peptides.
Additionally, the applicant studied the effects of the above-referenced SAHP L37pA as an inhibitor of CD36-dependent, PAMP/DAMP-induced pro-inflammatory response. See FIGS. 9(a)-9(c) To study this, the applicant conducted cell culture experiments using CD36+ HEK293 cells, treated with increasing amounts of CD36 ligands. […] As controls, no treatment, L37pA alone, and L3D alone were administered.
As controls, no treatment, L37pA alone, and L3D alone were administered. […] L37pA was especially effective in the case of 1 μg/ml and 2.5 μg/ml HMGB1, relative to administrations of HMGB1 alone.
In FIG. 9(c), the DAMP Histone H3B was administered in the amount of 25 μg/ml alone, in combination with 10 μg/ml L37pA, 25 μg/ml L37pA, 10 μg/ml L3D and 25 µg/ml L3D. As controls, no treatment, 10 μg/ml L37pA alone, 25 μg/ml L37pA alone, 10 μg/ml L3D alone, and 25 μg/ml L3D alone were administered.

[2] = tested on: wild-type (WT) HEK293 cells; assay: IL-8 in conditioned medium (ELISA) of wild-type HEK293 cells after 20 hours incubation with CD36 ligands; type: cell-based; settings: wildtype HEK293 cells; increasing ligand concentrations; 20 hours (FIG. 8)
Protocol: as §1, §2

T1 sequence (P16671 whole entry): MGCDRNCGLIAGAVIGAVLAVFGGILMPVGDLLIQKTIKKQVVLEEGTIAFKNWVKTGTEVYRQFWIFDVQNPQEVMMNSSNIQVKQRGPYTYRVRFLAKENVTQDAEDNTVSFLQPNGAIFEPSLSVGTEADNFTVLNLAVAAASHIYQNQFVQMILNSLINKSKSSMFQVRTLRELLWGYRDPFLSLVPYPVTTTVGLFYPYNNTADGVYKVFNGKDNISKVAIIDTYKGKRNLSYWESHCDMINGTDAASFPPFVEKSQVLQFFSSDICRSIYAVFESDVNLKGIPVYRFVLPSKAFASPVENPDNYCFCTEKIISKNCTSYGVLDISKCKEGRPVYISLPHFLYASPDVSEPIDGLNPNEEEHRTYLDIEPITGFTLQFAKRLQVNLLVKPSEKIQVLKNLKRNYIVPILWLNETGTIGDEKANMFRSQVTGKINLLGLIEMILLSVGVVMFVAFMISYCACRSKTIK

DWLKAFYDKVAEKLKEAFPDWLKAFYDKVAEKLKEAF [Peptide L37pA]
skin irritation or other adverse side effects (mice; chronic topical administration in the therapeutic range of doses): does not induce skin irritation or other adverse side effects
adverse effects (general toxicity, behavioral changes, weight loss, skin redness, skin erosions) (mice; up to 14 repetitive daily skin applications of hydrogel formulation): no adverse effects

EKLLELLKKLLELLKKLLPDWLKAFYDKVAEKLKEAF [ELK-B-P-18A]
heat hyperalgesia compared to the inactive L3D-L37pA peptide ([1]; CFA): improved heat hyperalgesia compared to the inactive L3D-L37pA peptide at 3 hours, and particularly improved heat hyperalgesia at 7 days

EKLLELLKKLLELLKKLLPEKLLELLKKLLELLKKLL [ELK-B]
heat hyperalgesia compared to the inactive L3D-L37pA peptide ([1]; CFA): slightly improved heat hyperalgesia compared to the active L3D-L37pA peptide at 1 day, and similar heat hyperalgesia at other timepoints

L3D-37pA: inactive L37pA peptide where three L-lysine's in each A18 were replaced with D-lysine's disrupting the helical structure; negative control (DWLKAFYDKVAEKLKEAFPDWLKAFYDKVAEKLKEAF; also: three of the four Lys in each A18 segment are D-Lys, places not given here) [Peptide L3D-37pA]
withdrawal latencies to thermal stimuli ([1]; intramuscular peptide approx. 20 μg per injection once a day, 3 hours after CFA (FIG. 2(a))): reduction was even more exaggerated
withdrawal latencies to thermal stimuli ([1]; intramuscular peptide approx. 20 μg per injection once a day, 24 hours after CFA (FIG. 2(a))): only showed a minimal increase
withdrawal latencies to thermal stimuli ([1]; intramuscular peptide approx. 20 μg per injection once a day, three days after CFA (FIG. 2(a))): still showed a significant reduction of withdrawal latencies
withdrawal latencies to thermal stimuli ([1]; topical application 0.2 mg/ml, 24 hours and 3 days after CFA (FIG. 3(a))): remained reduced with only slight increase
pain sensation in response to stimuli ([1]; CFA model, topical hydrogel or lotion, and local intramuscular injection): did not show any pain-reducing activities
paw withdrawal temperature of inflamed paws ([1]; CFA, topical hydrogel or local intramuscular injection, within 3 days post-CFA (FIGS. 2(a), 3(a))): without effect
heat hyperalgesia (response temperature) ([1]; Example 2, FIG. 4, CFA, intramuscular injection, 24 h, 3 d, 7 d): did not reduce heat hyperalgesia at any time point
production of IL-8 relative to LPS alone (CD36; 10 ng/ml and 100 ng/ml LPS, 10 μg/ml peptide, CD36+ HEK293 cells, 20 hours): ineffective or only slightly effective
production of IL-8 relative to Histone H3B alone (CD36; 25 μg/ml Histone H3B, 10 μg/ml and 25 μg/ml peptide, CD36+ HEK293 cells, 20 hours): ineffective or only slightly effective
production of IL-8 relative to HMGB1 alone (CD36; 0.25, 1 and 2.5 μg/ml HMGB1, 10 μg/ml peptide, CD36+ HEK293 cells, 20 hours): ineffective or only slightly effective

high mobility group box 1 protein [HMGB1]
IL-8 produced by cells treated with the ligand [2]: minimal amount of interleukin 8
IL-8 produced by cells treated with the ligand (CD36): significant amount of IL-8

lipopolysaccharide [LPS]
IL-8 produced by cells treated with the ligand [2]: minimal amount of interleukin 8
IL-8 produced by cells treated with the ligand (CD36): significant amount of IL-8

Reference: US20250066452A1, “SYNTHETIC AMPHIPATHIC HELICAL PEPTIDES AND TREATMENT METHODS USING SYNTHETIC AMPHIPATHIC HELICAL PEPTIDES” (UNIVERSITY OF MARYLAND, BALTIMORE, priority 2022, published 2025)
